Consider 12 compounds from ChEMBL document CHEMBL1914332, “Marine diterpene glycosides” (Bioorg Med Chem, 2011).

Molecules are shown by their SMILES. Bounds are passed on as bounds.

In general, IC50 refers to the concentration needed to halve the response being measured.

The test deals with MCF7. Nature of the test: Antimitotic activity in human MCF7 cells assessed as mitotic arrest after 16 to 20 hrs by ELISA method. The class given is functional, cell-based. Background: ELISA stands for enzyme-linked immunosorbent assay.
As for `CC(=O)O[C@@H]1[C@H](OC/C2=C/[C@@H]3[C@@H](C(C)C)CC=C(C)[C@@H]3C[C@H](OC(=O)/C=C/c3cn(C)cn3)[C@]3(C)C=C[C@@]2(OCCO)O3)OC[C@@H](O)[C@H]1O`, the half-maximal inhibitory concentration (IC50) came out at 0.02 µM.

With `CC(=O)O[C@@H]1[C@H](OC/C2=C/[C@@H]3[C@@H](C(C)C)CC=C(C)[C@@H]3C[C@H](OC(=O)/C=C/c3cn(C)cn3)[C@]3(C)C=C[C@@]2(OCC(C)(C)CO)O3)OC[C@@H](O)[C@H]1O`, the IC50 was 0.08 µM.

As for `CO[C@]12C=C[C@](C)(O1)[C@@H](OC(=O)/C=C/c1cn(C)cn1)C[C@@H]1[C@H](/C=C\2CO[C@@H]2OC[C@@H](O)[C@@H](O)[C@@H]2OC(C)=O)[C@@H](C(C)C)C[C@@H]2O[C@@]21C`, the 50% inhibitory concentration (IC50) was 0.03 µM.

For `CCO[C@]12C=C[C@](C)(O1)[C@@H](OC(=O)/C=C/c1cn(C)cn1)C[C@H]1C(CO)=CC[C@H](C(C)C)[C@H]1/C=C\2CO[C@@H]1OC[C@@H](O)[C@@H](O)[C@@H]1OC(C)=O`, the IC50 worked out at 0.02 µM.

`CO[C@]12C=C[C@](C)(O1)[C@@H](OC(=O)/C=C/c1cn(C)cn1)C[C@@H]1[C@H](/C=C\2CO[C@@H]2OC[C@@H](O)[C@@H](O)[C@@H]2OC(C)=O)[C@@H](C(C)C)C[C@H]2O[C@@]12C`: the IC50 was determined as 0.3 µM.

`CO[C@]12CC[C@](C)(O1)[C@@H](OC(=O)CCc1cn(C)cn1)C[C@@H]1[C@H](/C=C\2CO[C@@H]2OC[C@@H](O)[C@@H](O)[C@@H]2OC(C)=O)[C@@H](C(C)C)CC[C@@H]1C`: the IC50 is > 10 µM.

Turning to `CO[C@]12C=C[C@](C)(O1)[C@@H](OC(=O)CCc1cn(C)cn1)C[C@H]1C(C)=CC[C@H](C(C)C)[C@H]1/C=C\2CO[C@@H]1OC[C@@H](O)[C@@H](O)[C@@H]1OC(C)=O`, the IC50 turned out to be 20 µM.

For the compound `CO[C@]12C=C[C@](C)(O1)[C@@H](OC(=O)/C=C/c1cn(C)cn1)C[C@@H]1[C@H](/C=C\2CO[C@@H]2OC[C@@H](O)[C@@H](O)[C@@H]2OC(C)=O)[C@@H](C(C)C)C=C[C@@]1(C)O` [CARIBAEOSIDE], the concentration for half-maximal inhibition (IC50) came out at 20 µM.

In the case of `CC(=O)O[C@@H]1[C@H](OC/C2=C/[C@@H]3[C@@H](C(C)C)CC=C(C)[C@@H]3C[C@H](OC(=O)/C=C/c3cn(C)cn3)[C@]3(C)C=C[C@@]2(O)O3)OC[C@@H](O)[C@H]1O` [DESMETHYLELEUTHEROBIN], the IC50 worked out at 0.02 µM.

`CO[C@]12C=C[C@](C)(O1)[C@@H](OC(=O)/C=C/c1cn(C)cn1)C[C@H]1C(C)=CC[C@H](C(C)C)[C@H]1/C=C\2CO[C@@H]1OC[C@@H](O)[C@@H](O)[C@@H]1OC(C)=O` [ELEUTHEROBIN]: the IC50 is 0.1 µM.

`CO[C@]12C=C[C@](C)(O1)[C@@H](OC(=O)/C=C/c1cn(C)cn1)C[C@H]1C(C)=CC[C@H](C(C)C)[C@H]1/C=C\2CO[C@@H]1OC[C@@H](O)[C@@H](OC(C)=O)[C@@H]1O` [ISOELEUTHEROBIN A]: the IC50 is 0.05 µM.

`CO[C@]12CC[C@](C)(O1)[C@@H](OC(=O)/C=C/c1cn(C)cn1)C[C@@H]1[C@H](/C=C\2CO[C@@H]2OC[C@@H](O)[C@@H](O)[C@@H]2OC(C)=O)[C@@H](C(C)C)CC[C@@H]1C` [TETRAHYDROELEUTHEROBIN]: the IC50 was 0.2 µM.
